Measured values from patent US7244712B2, “Aminoglycoside antibiotics and methods of using same” (priority 2004, dated 2007).
Converted amounts (≈) assume the structure as drawn. “Also recorded” adds a separate entry of the source.

Columns and labels:
70S ribosome = experiment: Fluorescence anisotropy binding to 70S ribosomes; conditions: competition with CRP, E. coli ribosomes; read-out: Dissociation constant (KD) with 70S ribosome
Experimental: After establishing the lack of stereospecificity in the binding of aminoglycosides to the A-site RNA constructs (FIG. 9A-C) where the binding affinity, KD, is about 0.1 μM to about 100 μM, the stereospecificity of aminoglycoside binding to intact ribosomes was determined. Both yeast and E. coli ribosomes were prepared and aminoglycoside binding was measured using fluorescence anisotropy methods. For example, fluorescence anisotropy methods recited in Wang, Y., and Rando, R. R. Chem. Biol. (1995) 2, 281-290; and Wang, Y., Hamasaki, K., and Rando, R. R. Biochemistry (1997) 36,768-779. CRP was used as the binding probe. […] Binding data reported herein for aminoglycoside compounds with eukaryotic yeast ribosomes are similar to binding data for said aminoglycoside compounds with ribosoimes in bacteria and with eukaryotic A-site rRNA constructs.
5-Carboxytetramethylrhodamine-labeled paromomycin (CRP) and tobramycin (CRT) concentrations were determined spectroscopically at 550 nm using a molar extinction coefficient of 6.00×10 4 M −1 cm −1. Fluorescence anisotropy measurements were performed on a Perkin-Elmer LS-50B luminescence spectrometer equipped with a thermostat accurate to ±0.1° C. as indicated previously (Wang, Y., Hamasaki, K., & Rando, R. R. (1997) Biochemistry 36, 768-779). The tracer solution was excited at 550 nm and monitored at 580 nm. The integration time was 5 s. For every point, 6 measurements were taken, and their average values were used for calculation. Measurements were carried out in a buffer solution containing 150 mM NaCl, 5 mM KCl, 1 mM CaCl2, 1 mM MgCl2, and 20 mM HEPES (pH 7.5). Prior to measurements, RNA constructs were renatured by incubating in binding buffer {150 mM NaCl, 5 mM KCl, 1 mM CaCl2, 1 mM MgCl2, and 20 mM HEPES (pH 7.5)} for 3 minutes at 90° C. followed by slow cooling to 25° C.
Equation 1 was used for the determination of the dissociation constant (Kd) for the interactions between RNA or ribosome and CRP. A=A0+DA{(RNA)0+(CRP)0+Kd−({(RNA)0+(CRP)0+Kd}^2−4(RNA)0(CRP)0)½}/2 where A and A0 are the fluorescence anisotropy of CRP in the presence and absence of RNA, respectively, and DA is the difference between the fluorescence anisotropy of CRP in the presence of an extrapolated infinite concentration of RNA minus the fluorescence anisotropy in the absence of RNA. (RNA)0 and (CRP)0 are the initial concentrations of RNA and CRP, respectively.
Equation 2 is used for the calculation of the KD values in the competition binding assay. (aminoglycoside)0={KD(A−−A)/Kd(A−A0)+1}{(RNA)0−Kd(A−A0)/(A−−A)−(CRP)0(A−A0)/(A−−A)} where KD is the dissociation constant between the RNA and the aminoglycosides; (aminoglycoside)0 is the initial concentration of the aminoglycosides; AL is anisotropy of completely bound tracer. Both Kd and KD were determined by non-linear curve fitting using the equations described above, and are presented as mean values of three independent measurements.
The purification of E. coli (E600) 70S ribosomes was carried out according to the published procedure (Lazaro, E., van den Broek, L. A. G. M., Felix, A. S., Ottenheijm, H. C. J., Ballesta, J. P. G. (1991) Biochemistry 30, 9642-9648). E. coli MRE600 were grown for 12 h in 6L of LB medium (10 g trypton, 5 g yeast extract, 5 g NaCl per 1 L, pH 7.0) at 37° C. Crude ribosomes were precipitated from clarified supernatant by 4 h centrifugation at 25,000 rpm in Beckman SW 28 rotor at 4° C. The ribosome pellets were collected in 5 mL of buffer BR1, containing 10 mM HEPES, pH 7.5, 500 mM ammonium acetate, 100 mM magnesium chloride and 2.5 mM DTT. The ribosome suspension was centrifuged for 20 min at 15000 rpm to be clarified. The clarified sample was loaded over two layers of 20% and 40% sucrose in buffer BR1 and centrifuged for 18 hr at 19000 rpm in Beckman SW28 rotor at 4° C. […]

[1] = tested on: E. coli S30 extract, containing 70S ribosomes; experiment: In vitro protein translation (CAT mRNA, 35S methionine incorporation); type: biochemical; conditions: quantitation of gel bands, read-out: IC50, concentration producing 50% inhibition of translation
Experimental: Protein translation was performed from chloramphenicol acetyl transferase (CAT) mRNA. […] A commercial E. coli ribosomal suspension was supplemented with an E. coli extract containing the required elements for translation. These include translation factors, tRNAs, and aminoacyl tRNA synthases. Plasmid, T7 RNA polymerase and amino acids were added to the reaction mixture, and both transcription and translation steps were performed in the same vial. The effects of the aminoglycosides on the translation process were evaluated by measuring the incorporation of ^35S methionine in the translated chloramphenicol acetyl transferase protein.
In vitro translation was performed by using PROTEINscript™-PRO (Ambion) kit. […] Reaction mixtures contained appropriate concentrations of antibiotic (neomycin B, D- and L-neamine). The protein was translated from CAT mRNA, transcribed from control DNA template containing CAT gene under control of the T7 promotor. The product, ˜25 kDa chloramphenicol acetyl transferase, was labeled during translation with 1 μCi ^35S methionine (New England Nuclear) per reaction (no cold methionine was added).
Following the translation, the samples were analyzed by electrophoresis on 4-20% SDS mini-gels (Invitrogen) for 1.5 h at 120V. Gels were fixed with 40% methanol/10% acetic acid and exposed to Molecular Dynamics phosphoimager plates, which were read on a Personal FX phosphoimager (Bio-Rad) and quantitated using QuantityOne™ software.

[2] = tested on: E. coli (ATCC 25922) transformed with pMM plasmid bearing APH(3')IIa; experiment: MIC, kanamycin/neomycin resistant E. coli; type: cell-based; conditions: growth inhibition greater than 90%
Experimental: (§1) E. coli (ATCC 25922) and P. aeruginosa (ATCC 27853) (BD Bioscience) were inoculated in 3 mL of the medium 2 (U.S. Pharmacopia), containing 6 g peptone, 3 g yeast extract and 1.5 g beef extract per 1 L, pH 6.6, and were grown in a shaker for 6 h at 37° C. until an OD 560=0.6-0.8 was reached.
Minimal inhibitory concentrations (MIC) were measured according to the published method (Greenberg, W. A., Priestley, E. S., Sears, P. S., Alper, P. B., Rosenbohm, C., Hendrix, M., Hung, S.-C., & Wong, C.-H. (1999) J. Am. Chem. Soc. 121, 6527-6541). E. coli (ATCC 25922) (both wild type and pMM-transformed) and P. aeruginosa (ATCC 27853) were grown in medium 2 to an optical density OD 600 of 0.6-0.8. The inoculi were diluted to OD 600 ˜0.1 in medium 2 and 1 mL of the culture was placed in 13 mL test tubes. The desired concentrations of antibiotic were added from stock solutions. […] The absorbance at 600 nm of each sample was read and MIC was taken as the lowest antibiotic concentration inhibiting bacterial growth by greater than 90%.

[3] = tested on: E. coli (ATCC 25922) transformed with the plasmid pMM, bearing the APH(3')IIa gene; experiment: Antibiotic activity disk assay, kanamycin/neomycin resistant E. coli; type: cell-based; conditions: FIG. 7B
Experimental: as §1
For the antibiotic disk assay, […] of each bacterial inoculum was mixed with 10 mL of melted agar (1.5% medium 2 agar, BD Bioscience) at 50-55° C. and poured onto 100 mm Petri dishes. Sterile Whatmann 3 MM 5 mm paper disks were soaked with antibiotic solutions and allowed to dry. The disks were positioned evenly on the surface of bacterial-inoculated solid agar and the plates were incubated at 37° C. for 1-2 days. MIC and bactericide index measurements.

S. aureus = experiment: Antibacterial activity against S. aureus; type: cell-based
E. faecalis = experiment: Antibacterial activity against E. faecalis; type: cell-based

NCC1OC(OC2C(N)CC(N)C(O)C2O)C(N)C(O)C1O [L-Neamine]
Kd (70S ribosome): 2.69 ± 0.46 µM | IC50 [1]: 195 µM | Minimal inhibitory concentration (MIC), E. coli kan/neo resistant [2]: 2100 µM (≈ 677 µg/mL) | Antibiotic activity in disk assay, kanamycin/neomycin resistant E. coli [3]: maintained antibiotic activity; also recorded: maintaines substantially the same level of activity | Antibacterial activity against S. aureus (S. aureus): little to no antibacterial activity | Antibacterial activity against E. faecalis (E. faecalis): little to no antibacterial activity
